The source of these data is patent US6939860B2, “Composition and method for treatment of neoplastic diseases associated with elevated matrix metalloproteinase activities using catechin compounds” (priority 2002, dated 2005).

In experiment [1] the test system is Human breast cancer cells (MDA MB 231). Description: Matrigel invasion assay, breast cancer cells. The experiment is classed as cell-based. As to conditions: EGCG 50 μg/ml alone, MDA MB 231, 18 hours. On the procedure: The Matrigel Invasion studies were conducted using Matrigel (Becton Dickinson) inserts in compatible 24 well plates. This assay is a reliable assay for evaluating cancer metastasis.
Human fibroblast cells were seeded and grown in the 24-well plates using culture media containing ˜10% serum. When the fibroblasts reached coalescence, the culture media with serum was withdrawn and replaced with fresh media without serum. A combination of catechin compounds plus dietary composition were added to the media without serum and human cancer cells were seeded on the upper surface of the Matrigel inserts.
After 18 hours, the media were withdrawn. Some media were saved for zymogram studies. The cells on the upper surface of the inserts were gently scrubbed away with cotton swab. The cells that had penetrated the Matrigel membrane and had migrated into the lower surface of the Matrigel were stained with Quick Stain and were counted under a microscope.
The general procedure for Matrigel Invasion Assay has been described above. In this assay, human breast cancer cells (5×10^4) were seeded on each insert. Various supplements were added to Leibovitz's media. The plates were incubated in an incubator in ambient air without supplemental CO2.

The subject of another experiment is MMP2. Put plainly: Zymogram of culture media from Matrigel invasion assay, MMP2. The class given is cell-based, Human. On the procedure: (§1) The media (25-30 μl) from Matrigel Invasion studies was applied to Novex zymogram gels (Invitrogen). The gel plates were developed and stained as recommended by the manufacturer. The matrix-metalloproteinases (MMPs) bands were identified on the basis of their known molecular weights.
(§2) The media from various treatments in the Matrigel Invasion assay (Example 4) were applied to Novex Zymogram Gel (Invitrogen). The plates were developed and stained as recommended by the manufacturer. The matrix metalloproteinases (MMPs) bands were identified on the basis of their known molecular weights (FIG. 6).

For the next experiment, the system named is MMP9. Description: Zymogram of culture media from Matrigel invasion assay, MMP9. The conditions noted are these: media of MDA MB 231 Matrigel invasion assay. The class given is cell-based, Human. As for the experimental part: as §1, §2
The test system of experiment [2] is Human Breast Cancer Cells MDA-MB 231. Put plainly: Cell proliferation study (MTT stain), breast cancer cells. As to conditions: MDA-MB 231, 4 days.
Description: To study the effects of catechins and dietary composition on cell proliferation of human cancer cells, various human cancer cell lines were cultured in 24 well plates using the culture conditions specified by ATCC (supplier of cell lines). The cells were generally incubated for 3 to 4 days (before coalescence was reached). The total number of cells in a culture well was determined by staining the cells with vital stain (MTT) followed by the determination of OD of the stain solution. MTT only stain the dead cells and the amount of stain uptake correlates with the number of dead cells in the culture. Percent inhibition was calculated by comparing the OD of the treatment groups with the OD of the control groups. In these studies, 5×10^4 breast cancer cells (MDAMB 231) were seeded in each of the wells of 24-well plate. […] Plates were incubated in ambient air (without supplemental CO2) for a period of 4 days. At the end of the period, the culture media were withdrawn and the cells in each well were stained with MTT. Excess MTT stain was washed off. The MTT stained cancer cells were dissolved in 1 ml DMSO solution. The optical density (OD) of the solution was determined for each well. The OD for the well was directly proportional to the number of dead cells. The OD of the MTT stained cancer cells that were previously cultured in the absence of EGCGT was used as a reference and was considered as 100. Percent inhibition was calculated by using the formula: % Inhibition=(OD of Reference−OD of the Test Treatment)/OD of Reference×100%.

Take `O=C(O[C@@H]1Cc2c(O)cc(O)cc2O[C@@H]1c1cc(O)c(O)c(O)c1)c1cc(O)c(O)c(O)c1` [EGCG, (−)-epigallocatechin-3-gallate]: the “inhibition of Matrigel invasion” value in experiment [1] is listed as about 100%. Besides, the “production of MMP2 (zymogram)” value with MMP2 (EGCG 20 ug/ml, media of MDA MB 231 Matrigel invasion assay) is recorded as “reduced”. The “activity of MMP2 (zymogram)” value is recorded as “completely inhibited” in the experiment with MMP2 (EGCG 50 μg/ml, media of MDA MB 231 Matrigel invasion assay) and “completely inhibited” with MMP2 (EGCG 100 ug/ml, media of MDA MB 231 Matrigel invasion assay). Also, the “activity of MMP2 secreted by breast cancer cells (zymogram)” value in the experiment with MMP2 (FIG. 6 legend, concentration not given) is listed as “decreases”. For the same molecule, the “production of MMP9 (zymogram)” value with MMP9 (EGCG 20 ug/ml) is recorded as “completely inhibited”. The “activity of MMP9 (zymogram)” value with MMP9 (EGCG 50 μg/ml) and in the experiment on MMP9 (EGCG 100 ug/ml) was “completely inhibited” each time. Moreover, the “inhibition of cell proliferation” value in experiment [2] (EGCG 10 ug/ml) is on record as “did not inhibit”; in experiment [2] (EGCG 20 μg/ml alone), 3%; in experiment [2] (EGCG 50 μg/ml) it was 34%; in experiment [2] (EGCG 100 μg/ml), 66%; in experiment [2] (EGCG 200 μg/ml), 70%.
